According to paper PMC10706763, “Molecular and Functional Characterization of Pheromone Binding Protein 2 from Cyrtotrachelus buqueti (Coleoptera: Curculionidae)” (International Journal of Molecular Sciences, 2023):
“Also recorded” adds a separate entry of the source.

Experiments:
[1] = system: antennae of male C. buqueti adults; test: EAG assays after RNAi of CbuqPBP2; assay type: in vivo, Cyrtotrachelus buqueti; settings: 72 h after dsRNA injection; chemical at 100 μg/μL in n-hexane
Procedure: To evaluate the function of CbuqPBP2 in C. buqueti olfaction, the dsRNA-injected, RNase-free water-injected, or non-injected male adults were subjected to EAG (Syntech, Hilversum, Netherlands) at 72 h after injection. Based on the results of the fluorescence competition binding assay, the chemicals (dibutyl phthalate, ethyl hexanoate, styrene and linalool) that bound with CbuqPBP2 were selected for electrophysiological experiments. The tested chemicals were diluted in n-hexane to prepare a solution at a concentration of 100 μg/μL, and n-hexane was used as a blank control.
The antenna for EAG detection was cut off and amputated at the base and tip. The basal and distal ends of the excised antenna were linked to a reference electrode and recording electrode by one teardrop of Spectra R360 electrically conductive gel, respectively. A filter paper strip (2 cm × 0.5 cm) loaded with ten microliters of each chemical solution was inserted into the sample tube (10 cm in length) as a stimuli source. An air-stimulus controller (CS-05 model) was used to deliver the stimulus. The stimulation time was 0.5 s, and the interval for antennal recovery was 30 s. The response of the antenna to each chemical was detected using a high-impedance amplifier (IDAC2) and analyzed using the EAG software (version 2.0) supplied with the instrument. The chemicals were tested randomly for each antenna. The antenna was stimulated one time with n-hexane before and after each chemical stimulation. Three to six antennae were measured for each chemical in independent experiments, and each antenna was tested three times. EAG responses were recorded in mV, and the relative EAG response of each chemical was calculated by using the following formula: Relative EAG response=EAGA/EAGCK1+EAGCK2/2 where EAG(A) represents the EAG response to the chemical; EAGCK1 and EAKCK2 represent EAG responses to n-hexane before and after each chemical stimulation, respectively.

CbuqPBP1 = system: CbuqPBP1; set-up: method as in doi:10.1111/phen.12209; settings: cited from earlier work
[2] = system: virgin males of C. buqueti; set-up: method as in earlier work; settings: compared with mated males and virgin females; cited from earlier work
CbuqPBP2 = CbuqPBP2 (Cyrtotrachelus buqueti, UniProt A0A1L3KPR5); test: Fluorescence competitive binding assay with 1-NPN probe; settings: increasing ligand concentration, Figure 4C,D
Procedure: The fluorescent probe 1-NPN and the tested chemicals with a purity of at least more than 96% were purchased from Aladdin Biochemical Technology Co., LTD. (Shanghai, China). The fluorescence binding assay was carried out on a Lumina fluorescence spectrophotometer (Thermo Fisher Scientific, MA, USA) using a 1 cm light path quartz cuvette at 25 °C. All the slit widths for both excitation and emission were 5 nm. The 1-NPN and all the compounds tested were dissolved in chromatography-grade methanol to a final concentration of 1 mM. The CbuqPBP2 protein was dissolved in 50 mM Tris–HCl buffer at pH 7.4 to a final concentration of 2 μM. […] The scanning range was 350–550 nm at each concentration, and the maximum fluorescence intensities were plotted against the free ligand concentration.

Sequence of CbuqPBP2 (A0A1L3KPR5 entry or part of it): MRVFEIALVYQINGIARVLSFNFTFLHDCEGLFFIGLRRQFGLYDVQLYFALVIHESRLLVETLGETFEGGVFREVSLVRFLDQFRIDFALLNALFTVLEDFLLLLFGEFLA

Compound | EAG response of dsCbuqPBP2-treated male adults versus water-injected and non-injected controls [1] | binding affinity of CbuqPBP1 (CbuqPBP1) | attraction effect [2] | fluorescence intensity in competitive binding curve (CbuqPBP2)
CCCCOC(=O)c1ccccc1C(=O)OCCCC [Dibutyl phthalate] | significantly reduced | strongest binding affinity | more significant attraction effect | –
CCCCCC(=O)OCC [Ethyl hexanoate] | did not significantly decrease | – | – | –
c1ccc2[nH]ccc2c1 [Indole] | – | – | – | the fluorescence intensity enhanced as the ligand concentration increased
C=CC(C)(O)CCC=C(C)C (stereo not drawn) [Linalool] | not significantly reduced; also recorded: did not influence the EAG response | – | – | –
CC(C)=CCC/C(C)=C/CC/C(C)=C/CC/C=C(\C)CC/C=C(\C)CCC=C(C)C [Squalene] | – | – | – | the fluorescence intensity enhanced as the ligand concentration increased
C=Cc1ccccc1 [Styrene] | significantly reduced | lower binding affinity | – | –
